Earlier results, collected in patent US8664239B2, “Tacrolimus for improved treatment of transplant patients” (Veloxis Pharmaceuticals A/S, priority 2007, dated 2014).
Where two headings read alike, the source gives them in different places.

Assays:
[1] = not given; remark: listed apart in the source

solubility (in chloroform): very soluble | solubility (in ethanol): freely soluble | solubility (in methanol): very soluble | solubility (in water): practically insoluble | bioavailability ([1]; after oral administration): ≤ 20% | mean time-to-peak concentration (tmax) ([1]; oral administration, healthy subjects or kidney or liver transplanted patients): 1 to 2 h
Compound: C=CC[C@@H]1/C=C(\C)C[C@H](C)C[C@H](OC)[C@H]2O[C@@](O)(C(=O)C(=O)N3CCCC[C@H]3C(=O)O[C@H](/C(C)=C/[C@@H]3CC[C@@H](O)[C@H](OC)C3)[C@H](C)[C@@H](O)CC1=O)[C@H](C)C[C@@H]2OC [Tacrolimus]
